In ChEMBL document CHEMBL3046405, “Knockdown of several components of cytochrome P450 enzyme systems by RNA interference enhances the susceptibility of Helicoverpa armigera to fenvalerate” (2012):

How the values were obtained:
Format in all cases: functional
Helicoverpa armigera [1] = experiment: Insecticidal activity against fenvalerate-susceptible Helicoverpa armigera third-instar larvae assessed as compound level per larva causing mortality after 48 hr
Helicoverpa armigera [2] = experiment: Insecticidal activity against fenvalerate-resistant Helicoverpa armigera HDFR third-instar larvae injected with dsCYP6B7-313-1 dsRNA assessed as compound level per larva causing mortality after 36 hr
Helicoverpa armigera [3] = experiment: Insecticidal activity against fenvalerate-resistant Helicoverpa armigera HDFR third-instar larvae injected with dsCYP6B7-313-1 dsRNA assessed as insect mortality at 4 to 16 ug/larva after 48 hr (fenvalerate alone control = 29.1 to 50.0%)
Helicoverpa armigera [4] = experiment: Potency index, ratio of LD50 for fenvalerate-resistant Helicoverpa armigera HDFR third-instar larvae injected with TE buffer to LD50 for fenvalerate-resistant Helicoverpa armigera HDFR third-instar larvae injected with dsCYP6B7-313-1 dsRNA after 24 hr
Helicoverpa armigera [5] = experiment: Potency index, ratio of LD50 for fenvalerate-resistant Helicoverpa armigera HDFR third-instar larvae injected with TE buffer to LD50 for fenvalerate-resistant Helicoverpa armigera HDFR third-instar larvae injected with dsCYP6B7-313-1 dsRNA plus dsCPR-403-1 dsRNA and dsCyt-b5-4 dsRNA after 24 hr
Helicoverpa armigera [6] = experiment: Insecticidal activity against fenvalerate-resistant Helicoverpa armigera HDFR third-instar larvae without dsRNA injection assessed as compound level per larva causing mortality after 48 hr
Helicoverpa armigera [7] = experiment: Insecticidal activity against fenvalerate-resistant Helicoverpa armigera HDFR third-instar larvae without dsRNA injection assessed as compound level per larva causing mortality after 24 hr
Helicoverpa armigera [8] = experiment: Insecticidal activity against fenvalerate-resistant Helicoverpa armigera HDFR third-instar larvae injected with dsCYP6B7-313-1 dsRNA plus dsCPR-403-1 dsRNA assessed as compound level per larva causing mortality after 12 hr
Helicoverpa armigera [9] = experiment: Potency index, ratio of LD50 for fenvalerate-resistant Helicoverpa armigera HDFR third-instar larvae injected with TE buffer to LD50 for fenvalerate-resistant Helicoverpa armigera HDFR third-instar larvae injected with dsCYP6B7-313-1 dsRNA plus dsCPR-403-1 after 36 hr
Helicoverpa armigera [10] = experiment: Insecticidal activity against fenvalerate-resistant Helicoverpa armigera HDFR third-instar larvae injected with dsCYP6B7-313-1 dsRNA plus dsCPR-403-1 dsRNA assessed as compound level per larva causing mortality after 24 hr
Helicoverpa armigera [11] = experiment: Potency index, ratio of LD50 for fenvalerate-resistant Helicoverpa armigera HDFR third-instar larvae injected with TE buffer to LD50 for fenvalerate-resistant Helicoverpa armigera HDFR third-instar larvae injected with dsCYP6B7-313-1 dsRNA plus dsCPR-403-1 after 24 hr
Helicoverpa armigera [12] = experiment: Insecticidal activity against fenvalerate-resistant Helicoverpa armigera HDFR third-instar larvae without dsRNA injection assessed as compound level per larva causing mortality after 12 hr
Helicoverpa armigera [13] = experiment: Insecticidal activity against fenvalerate-resistant Helicoverpa armigera HDFR third-instar larvae injected with dsCYP6B7-313-1 dsRNA plus dsCPR-403-1 dsRNA and dsCyt-b5-4 dsRNA assessed as compound level per larva causing mortality after 12 hr
Helicoverpa armigera [14] = experiment: Potency index, ratio of LD50 for fenvalerate-resistant Helicoverpa armigera HDFR third-instar larvae injected with TE buffer to LD50 for fenvalerate-resistant Helicoverpa armigera HDFR third-instar larvae injected with dsCYP6B7-313-1 dsRNA plus dsCyt-b5-4 dsRNA after 12 hr
Helicoverpa armigera [15] = experiment: Insecticidal activity against fenvalerate-resistant Helicoverpa armigera HDFR third-instar larvae assessed as compound level per larva causing mortality after 48 hr
Helicoverpa armigera [16] = experiment: Insecticidal activity against fenvalerate-resistant Helicoverpa armigera HDFR third-instar larvae injected with dsCYP6B7-313-1 dsRNA plus dsCyt-b5-4 dsRNA assessed as compound level per larva causing mortality after 48 hr
Helicoverpa armigera [17] = experiment: Insecticidal activity against fenvalerate-resistant Helicoverpa armigera HDFR third-instar larvae injected with dsCYP6B7-313-1 dsRNA assessed as compound level per larva causing mortality after 24 hr
Helicoverpa armigera [18] = experiment: Potency index, ratio of LD50 for fenvalerate-resistant Helicoverpa armigera HDFR third-instar larvae injected with TE buffer to LD50 for fenvalerate-resistant Helicoverpa armigera HDFR third-instar larvae injected with dsCYP6B7-313-1 dsRNA after 48 hr
Helicoverpa armigera [19] = experiment: Potency index, ratio of LD50 for fenvalerate-resistant Helicoverpa armigera HDFR third-instar larvae injected with TE buffer to LD50 for fenvalerate-resistant Helicoverpa armigera HDFR third-instar larvae injected with dsCYP6B7-313-1 dsRNA plus dsCPR-403-1 dsRNA and dsCyt-b5-4 dsRNA after 48 hr
Helicoverpa armigera [20] = experiment: Potency index, ratio of LD50 for fenvalerate-resistant Helicoverpa armigera HDFR third-instar larvae injected with TE buffer to LD50 for fenvalerate-resistant Helicoverpa armigera HDFR third-instar larvae injected with dsCYP6B7-313-1 dsRNA plus dsCPR-403-1 dsRNA and dsCyt-b5-4 dsRNA after 36 hr
Helicoverpa armigera [21] = experiment: Insecticidal activity against fenvalerate-resistant Helicoverpa armigera HDFR third-instar larvae injected with dsCYP6B7-313-1 dsRNA plus dsCyt-b5-4 dsRNA assessed as compound level per larva causing mortality after 12 hr
Helicoverpa armigera [22] = experiment: Insecticidal activity against fenvalerate-resistant Helicoverpa armigera HDFR third-instar larvae injected with TE buffer assessed as compound level per larva causing mortality after 48 hr
Helicoverpa armigera [23] = experiment: Insecticidal activity against fenvalerate-resistant Helicoverpa armigera HDFR third-instar larvae injected with dsCYP6B7-313-1 dsRNA assessed as compound level per larva causing mortality after 12 hr
Helicoverpa armigera [24] = experiment: Insecticidal activity against fenvalerate-resistant Helicoverpa armigera HDFR third-instar larvae injected with dsCYP6B7-313-1 dsRNA plus dsCyt-b5-4 dsRNA assessed as compound level per larva causing mortality after 24 hr
Helicoverpa armigera [25] = experiment: Resistance index, ratio of LD50 for fenvalerate-resistant Helicoverpa armigera HDFR third-instar larvae to LD50 for fenvalerate-susceptible Helicoverpa armigera third-instar larvae
Helicoverpa armigera [26] = experiment: Insecticidal activity against fenvalerate-resistant Helicoverpa armigera HDFR third-instar larvae injected with dsCYP6B7-313-1 dsRNA plus dsCPR-403-1 dsRNA and dsCyt-b5-4 dsRNA assessed as compound level per larva causing mortality after 48 hr
Helicoverpa armigera [27] = experiment: Insecticidal activity against fenvalerate-resistant Helicoverpa armigera HDFR third-instar larvae injected with dsCYP6B7-313-1 dsRNA assessed as compound level per larva causing mortality after 48 hr
Helicoverpa armigera [28] = experiment: Insecticidal activity against fenvalerate-resistant Helicoverpa armigera HDFR third-instar larvae injected with dsCYP6B7-313-1 dsRNA plus dsCyt-b5-4 dsRNA assessed as compound level per larva causing mortality after 36 hr
Helicoverpa armigera [29] = experiment: Insecticidal activity against fenvalerate-resistant Helicoverpa armigera HDFR third-instar larvae injected with dsCYP6B7-313-1 dsRNA plus dsCPR-403-1 dsRNA assessed as compound level per larva causing mortality after 48 hr
Helicoverpa armigera [30] = experiment: Potency index, ratio of LD50 for fenvalerate-resistant Helicoverpa armigera HDFR third-instar larvae injected with TE buffer to LD50 for fenvalerate-resistant Helicoverpa armigera HDFR third-instar larvae injected with dsCYP6B7-313-1 dsRNA plus dsCyt-b5-4 dsRNA after 24 hr
Helicoverpa armigera [31] = experiment: Insecticidal activity against fenvalerate-resistant Helicoverpa armigera HDFR third-instar larvae injected with dsCYP6B7-313-1 dsRNA plus dsCyt-b5-4 dsRNA assessed as insect mortality at 4 to 16 ug/larva after 48 hr (fenvalerate alone control = 29.1 to 50.0%)
Helicoverpa armigera [32] = experiment: Insecticidal activity against fenvalerate-resistant Helicoverpa armigera HDFR third-instar larvae injected with TE buffer assessed as compound level per larva causing mortality after 36 hr
Helicoverpa armigera [33] = experiment: Potency index, ratio of LD50 for fenvalerate-resistant Helicoverpa armigera HDFR third-instar larvae injected with TE buffer to LD50 for fenvalerate-resistant Helicoverpa armigera HDFR third-instar larvae injected with dsCYP6B7-313-1 dsRNA after 36 hr
Helicoverpa armigera [34] = experiment: Insecticidal activity against fenvalerate-resistant Helicoverpa armigera HDFR third-instar larvae injected with dsCYP6B7-313-1 dsRNA plus dsCPR-403-1 dsRNA assessed as insect mortality at 4 to 16 ug/larva after 48 hr (fenvalerate alone control = 29.1 to 50.0%)
Helicoverpa armigera [35] = experiment: Potency index, ratio of LD50 for fenvalerate-resistant Helicoverpa armigera HDFR third-instar larvae injected with TE buffer to LD50 for fenvalerate-resistant Helicoverpa armigera HDFR third-instar larvae injected with dsCYP6B7-313-1 dsRNA plus dsCPR-403-1 after 12 hr
Helicoverpa armigera [36] = experiment: Insecticidal activity against fenvalerate-resistant Helicoverpa armigera HDFR third-instar larvae without dsRNA injection assessed as compound level per larva causing mortality after 36 hr
Helicoverpa armigera [37] = experiment: Insecticidal activity against fenvalerate-resistant Helicoverpa armigera HDFR third-instar larvae injected with dsCYP6B7-313-1 dsRNA plus dsCPR-403-1 dsRNA and dsCyt-b5-4 dsRNA assessed as compound level per larva causing mortality after 36 hr
Helicoverpa armigera [38] = experiment: Insecticidal activity against fenvalerate-resistant Helicoverpa armigera HDFR third-instar larvae injected with TE buffer assessed as compound level per larva causing mortality after 12 hr
Helicoverpa armigera [39] = experiment: Potency index, ratio of LD50 for fenvalerate-resistant Helicoverpa armigera HDFR third-instar larvae injected with TE buffer to LD50 for fenvalerate-resistant Helicoverpa armigera HDFR third-instar larvae injected with dsCYP6B7-313-1 dsRNA plus dsCPR-403-1 dsRNA and dsCyt-b5-4 dsRNA after 12 hr
Helicoverpa armigera [40] = experiment: Insecticidal activity against fenvalerate-resistant Helicoverpa armigera HDFR third-instar larvae injected with dsCYP6B7-313-1 dsRNA plus dsCPR-403-1 dsRNA and dsCyt-b5-4 dsRNA assessed as insect mortality at 4 to 16 ug/larva after 48 hr (fenvalerate alone control = 29.1 to 50.0%)
Helicoverpa armigera [41] = experiment: Insecticidal activity against fenvalerate-resistant Helicoverpa armigera HDFR third-instar larvae injected with dsCYP6B7-313-1 dsRNA plus dsCPR-403-1 dsRNA assessed as compound level per larva causing mortality after 36 hr
Helicoverpa armigera [42] = experiment: Potency index, ratio of LD50 for fenvalerate-resistant Helicoverpa armigera HDFR third-instar larvae injected with TE buffer to LD50 for fenvalerate-resistant Helicoverpa armigera HDFR third-instar larvae injected with dsCYP6B7-313-1 dsRNA plus dsCyt-b5-4 dsRNA after 48 hr
Helicoverpa armigera [43] = experiment: Potency index, ratio of LD50 for fenvalerate-resistant Helicoverpa armigera HDFR third-instar larvae injected with TE buffer to LD50 for fenvalerate-resistant Helicoverpa armigera HDFR third-instar larvae injected with dsCYP6B7-313-1 dsRNA after 12 hr
Helicoverpa armigera [44] = experiment: Insecticidal activity against fenvalerate-resistant Helicoverpa armigera HDFR third-instar larvae injected with TE buffer assessed as compound level per larva causing mortality after 24 hr
Helicoverpa armigera [45] = experiment: Potency index, ratio of LD50 for fenvalerate-resistant Helicoverpa armigera HDFR third-instar larvae injected with TE buffer to LD50 for fenvalerate-resistant Helicoverpa armigera HDFR third-instar larvae injected with dsCYP6B7-313-1 dsRNA plus dsCyt-b5-4 dsRNA after 36 hr
Helicoverpa armigera [46] = experiment: Insecticidal activity against fenvalerate-resistant Helicoverpa armigera HDFR third-instar larvae injected with dsCYP6B7-313-1 dsRNA plus dsCPR-403-1 dsRNA and dsCyt-b5-4 dsRNA assessed as compound level per larva causing mortality after 24 hr
Helicoverpa armigera [47] = experiment: Potency index, ratio of LD50 for fenvalerate-resistant Helicoverpa armigera HDFR third-instar larvae injected with TE buffer to LD50 for fenvalerate-resistant Helicoverpa armigera HDFR third-instar larvae injected with dsCYP6B7-313-1 dsRNA plus dsCPR-403-1 after 48 hr

CC(C)C(C(=O)OC(C#N)c1cccc(Oc2ccccc2)c1)c1ccc(Cl)cc1 (configuration not stated) [FENVALERATE]
LD50 (Helicoverpa armigera [1]): 0.0982 µg
LD50 (Helicoverpa armigera [2]): 16.5 µg
mortality (Helicoverpa armigera [3]): 38.8%
Ratio (Helicoverpa armigera [4]): 1.8
Ratio (Helicoverpa armigera [5]): 3.5
LD50 (Helicoverpa armigera [6]): 23.1 µg
LD50 (Helicoverpa armigera [7]): 35.7 µg
LD50 (Helicoverpa armigera [8]): 16.8 µg
Ratio (Helicoverpa armigera [9]): 2.9
LD50 (Helicoverpa armigera [10]): 12.3 µg
Ratio (Helicoverpa armigera [11]): 2.9
LD50 (Helicoverpa armigera [12]): 48.8 µg
LD50 (Helicoverpa armigera [13]): 12.6 µg
Ratio (Helicoverpa armigera [14]): 2.5
LD50 (Helicoverpa armigera [15]): 16.13 µg
LD50 (Helicoverpa armigera [16]): 6.9 µg
LD50 (Helicoverpa armigera [17]): 19.7 µg
Ratio (Helicoverpa armigera [18]): 2
Ratio (Helicoverpa armigera [19]): 3.2
Ratio (Helicoverpa armigera [20]): 3
LD50 (Helicoverpa armigera [21]): 19 µg
LD50 (Helicoverpa armigera [22]): 21.5 µg
LD50 (Helicoverpa armigera [23]): 23.9 µg
LD50 (Helicoverpa armigera [24]): 14.5 µg
Ratio (Helicoverpa armigera [25]): 164
LD50 (Helicoverpa armigera [26]): 6.7 µg
LD50 (Helicoverpa armigera [27]): 10.7 µg
LD50 (Helicoverpa armigera [28]): 9.9 µg
LD50 (Helicoverpa armigera [29]): 8.9 µg
Ratio (Helicoverpa armigera [30]): 2.4
mortality (Helicoverpa armigera [31]): 50%
LD50 (Helicoverpa armigera [32]): 25.6 µg
Ratio (Helicoverpa armigera [33]): 1.6
mortality (Helicoverpa armigera [34]): 40.7%
Ratio (Helicoverpa armigera [35]): 2.8
LD50 (Helicoverpa armigera [36]): 26.1 µg
LD50 (Helicoverpa armigera [37]): 8.6 µg
LD50 (Helicoverpa armigera [38]): 46.8 µg
Ratio (Helicoverpa armigera [39]): 3.7
mortality (Helicoverpa armigera [40]): 44.4%
LD50 (Helicoverpa armigera [41]): 8.9 µg
Ratio (Helicoverpa armigera [42]): 3.1
Ratio (Helicoverpa armigera [43]): 2
LD50 (Helicoverpa armigera [44]): 35.2 µg
Ratio (Helicoverpa armigera [45]): 2.6
LD50 (Helicoverpa armigera [46]): 10.2 µg
Ratio (Helicoverpa armigera [47]): 2.4
